Reference: patent US11364203B2, “Process for forming active domains dispersed in a matrix” (Bend Research, Inc., priority 2014, dated 2022)
In brackets after ≈: the same amount, converted by molar mass.

What was measured:
Solubility in water = type: physicochemical
Solubility in acetone = type: physicochemical; settings: acetone at 25° C.

- solubility in water (in words) (Solubility in water; water): practically insoluble in water
- solubility (Solubility in water; water at 25° C.): < 1 µg/mL
- solubility in acetone (Solubility in acetone): 9000 µg/mL (≈ 18 mM)
Compound: CCC(=O)O[C@]1(C(=O)SCF)[C@H](C)C[C@H]2[C@@H]3C[C@H](F)C4=CC(=O)C=C[C@]4(C)[C@@]3(F)[C@@H](O)C[C@@]21C [Fluticasone, (6S,8S,9R,10S,11S,13S,14S,16R,17R)-6,9-difluoro-17-(((fluoromethyl)thio)carbonyl)-11-hydroxy-10,13,16-trimethyl-3-oxo-6,7,8,9,10,11,12,13,14,15,16,17-dodecahydro-3H-cyclopenta[a]phenanthren-17-yl propionate]
